Source: the supplement of paper PMC7840683
Where a name gives a salt, the structure may show the parent alone.

System: HepaRG
Assay: LDH release cytotoxicity, % of total lysis control; higher = more cytotoxic
Conditions: 48 h
Summary of the method: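 HepaRG cells from a single lot were plated on collagen I-coated 96-well plates and treated in duplicate for 48 h with eight-point half-log series of test chemicals, starting at 100 µM, in serum-free induction medium containing 0.5% DMSO. Total lysis wells were given 0.1% Triton X. LDH released into 50 µL of spent medium was measured as resorufin fluorescence with CytoTox-ONE on a Tecan Safire. Percent cytotoxicity was normalized to on-plate vehicle and total lysis controls and then averaged across duplicates.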

O=C(O)C1(C(=O)Nc2ccc(Cl)cc2Cl)CC1 [Cyclanilide]
Conditions	LDH release cytotoxicity [%]
0.03162 µM	0.835
0.1 µM	-0.444
0.3162278 µM	-0.309
1 µM	-1.03
3.16228 µM	-0.632
10 µM	0.531
31.6228 µM	2.66
100 µM	4.54

CCSC(=O)N(CC)C1CCCCC1 [Cycloate]
Conditions	LDH release cytotoxicity [%]
0.03162 µM	-0.645
0.1 µM	-0.297
0.3162278 µM	-0.471
1 µM	-0.678
3.16228 µM	0.089
10 µM	0.922
31.6228 µM	0.446
100 µM	1.91

OC1CCCCC1 [Cyclohexanol]
Conditions	LDH release cytotoxicity [%]
0.03162 µM	-1.14
0.1 µM	-1.56
0.3162278 µM	-2.24
1 µM	-1.92
3.16228 µM	-1.56
10 µM	-0.208
31.6228 µM	-0.773
100 µM	-0.073

O=C1CCCCC1 [Cyclohexanone]
Conditions	LDH release cytotoxicity [%]
0.03162 µM	-0.709
0.1 µM	-1.76
0.3162278 µM	-1.81
1 µM	-1.07
3.16228 µM	-1.46
10 µM	-1.17
31.6228 µM	-0.292
100 µM	0.737

CC1CC(C)C(=O)C(C(O)CC2CC(=O)NC(=O)C2)C1 (stereo not given) [Cycloheximide]
Conditions	LDH release cytotoxicity [%]
0.03162 µM	-0.96
0.1 µM	-0.691
0.3162278 µM	-1.8
1 µM	-1.99
3.16228 µM	-1.19
10 µM	3.47
31.6228 µM	24
100 µM	61.9

NC1CCCCC1 [Cyclohexylamine]
Conditions	LDH release cytotoxicity [%]
0.03162 µM	-1.45
0.1 µM	-1.58
0.3162278 µM	-1.84
1 µM	-2.2
3.16228 µM	-2.32
10 µM	-1.74
31.6228 µM	-0.752
100 µM	0.0324

O=C(c1ccccc1)C1CCCCC1 [Cyclohexylphenylketone]
Conditions	LDH release cytotoxicity [%]
0.03162 µM	-1.79
0.1 µM	-2.63
0.3162278 µM	-0.957
1 µM	-1.4
3.16228 µM	-1.03
10 µM	-0.851
31.6228 µM	-0.8
100 µM	0.0978

CC1=C2CC3C(CC=C4CC(O)CCC43C)C2CCC12OC1CC(C)CNC1C2C (stereo not given) [Cyclopamine]
Conditions	LDH release cytotoxicity [%]
0.015811 µM	-1.27
0.05 µM	-3.64
0.158114 µM	-4.31
0.5 µM	-4.01
1.58114 µM	-4.1
5 µM	-3.94
15.8114 µM	-2.45
50 µM	0.363

O=P1(N(CCCl)CCCl)NCCCO1 (stereo not given) [Cyclophosphamide monohydrate]
Conditions	LDH release cytotoxicity [%]
0.03162 µM	-1.01
0.1 µM	-1.29
0.3162278 µM	-1.53
1 µM	-1.41
3.16228 µM	-1.5
10 µM	-0.484
31.6228 µM	-0.76
100 µM	1.23

CC1(C)C(C=C(Cl)Cl)C1C(=O)OC(C#N)c1ccc(F)c(Oc2ccccc2)c1 (stereo not given) [Cyfluthrin]
Conditions	LDH release cytotoxicity [%]
0.031623 µM	0.499
0.1 µM	-1.05
0.316228 µM	-1.18
1 µM	-1.61
3.16228 µM	-1.18
10 µM	-0.972
31.6228 µM	-0.561
100 µM	-0.122

CCCCOC(=O)C(C)Oc1ccc(Oc2ccc(C#N)cc2F)cc1 (stereo not given) [Cyhalofop-butyl]
Conditions	LDH release cytotoxicity [%]
0.0314647 µM	-1.16
0.0995 µM	-1.07
0.3146466 µM	-0.775
0.995 µM	-1.29
3.14647 µM	-0.485
9.95 µM	0.552
31.4647 µM	-0.564
99.5 µM	0.894

CCNC(=O)NC(=O)C(C#N)=NOC [Cymoxanil]
Conditions	LDH release cytotoxicity [%]
0.03162 µM	-0.835
0.1 µM	-1.41
0.3162278 µM	-2
1 µM	-1.41
3.16228 µM	-2.17
10 µM	-0.806
31.6228 µM	-0.354
100 µM	1.89

CC1(C)C(C=C(Cl)Cl)C1C(=O)OC(C#N)c1cccc(Oc2ccccc2)c1 (stereo not given) [Cypermethrin]
Conditions	LDH release cytotoxicity [%]
0.03162 µM	-0.819
0.1 µM	-1.77
0.3162278 µM	-1.92
1 µM	-2.15
3.16228 µM	-1.45
10 µM	-1.44
31.6228 µM	-0.803
100 µM	-0.801

CC(C1CC1)C(O)(Cn1cncn1)c1ccc(Cl)cc1 (stereo not given) [Cyproconazole]
Conditions	LDH release cytotoxicity [%]
0.0314647 µM	-2.83
0.0995 µM	-2.41
0.3146466 µM	-3.23
0.995 µM	-3.32
3.14647 µM	-3.1
9.95 µM	-2.59
31.4647 µM	-2.12
99.5 µM	6.32

Cc1cc(C2CC2)nc(Nc2ccccc2)n1 [Cyprodinil]
Conditions	LDH release cytotoxicity [%]
0.03162 µM	-1.37
0.1 µM	-0.753
0.3162278 µM	-0.874
1 µM	-1.16
3.16228 µM	-0.24
10 µM	-0.264
31.6228 µM	0.71
100 µM	11.3

CC(=O)OC1(C(C)=O)CCC2C3C=C(Cl)C4=CC(=O)C5CC5C4(C)C3CCC21C (stereo not given) [Cyproterone acetate]
Conditions	LDH release cytotoxicity [%]
0.03162 µM	-0.255
0.1 µM	-1.64
0.3162278 µM	-0.773
1 µM	-0.77
3.16228 µM	-0.346
10 µM	0.58
31.6228 µM	10.4
100 µM	46.5

Nc1nc(N)nc(NC2CC2)n1 [Cyromazine]
Conditions	LDH release cytotoxicity [%]
0.03162 µM	-1.4
0.1 µM	-0.914
0.3162278 µM	-0.958
1 µM	-1.75
3.16228 µM	-1.74
10 µM	-1.14
31.6228 µM	-1.52
100 µM	0.201

Nc1ccn(C2OC(CO)C(O)C2O)c(=O)n1 (stereo not given) [Cytarabine hydrochloride]
Conditions	LDH release cytotoxicity [%]
0.03162 µM	-0.941
0.1 µM	-1.96
0.3162278 µM	-0.891
1 µM	-1.56
3.16228 µM	-0.827
10 µM	0.301
31.6228 µM	1.76
100 µM	4.47

OC[C@@H](O)[C@@H](O)[C@H](O)[C@H](O)CO [D-Mannitol]
Conditions	LDH release cytotoxicity [%]
0.031623 µM	-0.135
0.1 µM	-2.88
0.316228 µM	-2.85
1 µM	-2.73
3.16228 µM	-2.39
10 µM	-1.31
31.6228 µM	0.669
100 µM	3.29

CCN(CC)C(=O)c1cccc(C)c1 [DEET]
Conditions	LDH release cytotoxicity [%]
0.03305 µM	-1.66
0.1045 µM	-2.06
0.330458 µM	-2.58
1.045 µM	-2.44
3.30458 µM	-2.59
10.45 µM	-2.53
33.0458 µM	-1.85
104.5 µM	-1.16
